Data published in ChEMBL document CHEMBL1140922, “Detection of metabolite changes in C6 glioma cells cultured with antimitotic oleyl glycoside by 1H MAS NMR” (2009).
Activity calls are given as the source filed them. The rule behind the calls is not given here.

Key:
C6 [1] = experiment: Effect on metabolic changes in rat C6 cells assessed as ratio of CoA to creatine at 10 uM after 24 hrs by NMR analysis; format: functional
C6 [2] = experiment: Effect on metabolic changes in rat C6 cells assessed as increase in choline signal at 10 uM after 48 hrs by NMR analysis; format: functional
C6 [3] = experiment: Induction of apoptosis in rat C6 cells assessed as DNA fragmentation at 80 uM after 19 hrs by electrophoresis; format: functional, cell-based
C6 [4] = experiment: Induction of apoptosis in rat C6 cells assessed as DNA fragmentation at 40 uM after 19 hrs by electrophoresis; format: functional, cell-based
C6 [5] = experiment: Cytotoxicity against rat C6 cells assessed as necrotic cells at 80 uM after 19 hrs; format: functional, cell-based
C6 [6] = experiment: Induction of apoptosis in rat C6 cells assessed inhibition of cell division; format: functional, cell-based
C6 [7] = experiment: Induction of apoptosis in rat C6 cells assessed cell death at > 40 uM; format: functional, cell-based

## CCCCCCCC/C=C\CCCCCCCCO[C@H]1O[C@H](CO)[C@@H](O)[C@H](O)[C@H]1NC(C)=O
C6 [1]
  Ratio: 0.32
C6 [2]
  Activity: 2.47
C6 [3]
  Activity: Active
C6 [4]
  Activity: Active
C6 [5]
  Activity: inactive
C6 [6]
  Activity: Active
C6 [7]
  Activity: Active
